Measurements: PMC6715294 (Molecular cancer therapeutics, 2018)

Key:
AKT1 = AKT1 (Homo sapiens, UniProt P31749); test: ADP-Glo kinase assay with active AKT1; format: biochemical
AKT2 = AKT2 (Homo sapiens, UniProt P31751); test: ADP-Glo kinase assay with active AKT2; format: biochemical
AKT2, sequence (P31751 whole entry): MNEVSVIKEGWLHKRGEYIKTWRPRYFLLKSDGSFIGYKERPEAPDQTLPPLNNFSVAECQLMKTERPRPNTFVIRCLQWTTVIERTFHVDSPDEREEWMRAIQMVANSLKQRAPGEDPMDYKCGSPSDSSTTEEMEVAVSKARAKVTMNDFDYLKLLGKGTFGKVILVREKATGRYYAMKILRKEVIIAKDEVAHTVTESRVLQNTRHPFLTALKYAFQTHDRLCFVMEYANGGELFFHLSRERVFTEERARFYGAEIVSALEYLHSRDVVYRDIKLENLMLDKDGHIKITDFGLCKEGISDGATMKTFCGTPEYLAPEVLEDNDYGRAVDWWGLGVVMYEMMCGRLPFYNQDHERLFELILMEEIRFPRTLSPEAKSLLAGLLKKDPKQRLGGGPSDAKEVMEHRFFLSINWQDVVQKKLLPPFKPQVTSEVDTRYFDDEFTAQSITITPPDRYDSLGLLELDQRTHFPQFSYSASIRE

AKT1, sequence (P31749 whole entry): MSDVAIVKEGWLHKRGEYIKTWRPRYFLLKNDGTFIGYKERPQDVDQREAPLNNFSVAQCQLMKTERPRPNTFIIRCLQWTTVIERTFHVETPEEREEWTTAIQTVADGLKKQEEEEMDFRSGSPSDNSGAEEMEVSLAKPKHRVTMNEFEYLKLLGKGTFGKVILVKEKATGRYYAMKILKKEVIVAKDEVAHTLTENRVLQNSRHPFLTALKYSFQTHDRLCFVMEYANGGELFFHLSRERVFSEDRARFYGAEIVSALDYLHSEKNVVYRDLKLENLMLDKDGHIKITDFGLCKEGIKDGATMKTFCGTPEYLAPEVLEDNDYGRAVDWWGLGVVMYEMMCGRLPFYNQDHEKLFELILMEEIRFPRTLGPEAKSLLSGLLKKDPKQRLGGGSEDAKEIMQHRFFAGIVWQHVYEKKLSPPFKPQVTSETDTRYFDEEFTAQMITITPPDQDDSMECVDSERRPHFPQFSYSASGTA

- IC50 (AKT1): 8.4 ± 1.34 µM
- IC50 (AKT2): 8.9 ± 0.92 µM
SMILES: C=C1C(=O)[C@]23[C@H](O)[C@H]1CC[C@H]2[C@@]12CO[C@]3(O)[C@@H](O)[C@@H]1C(C)(C)CC[C@@H]2O [oridonin]
